Measurements reported in publication PMC10364322, “Evaluation of chronic drug-induced electrophysiological and cytotoxic effects using human-induced pluripotent stem cell-derived cardiomyocytes (hiPSC-CMs)” (Frontiers in Pharmacology, 2023).
Like-named read-outs stand apart in the source and are kept apart here.

Test system: hiPSC-CMs (iCell-Cardiomyocytes^2)
Outline: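 Spontaneous field potentials and impedance recorded by MEA at 37°C, 5% CO2 in hiPSC-CM monolayers (50 K/well, fibronectin-coated), 5-min baseline before compound; final DMSO 0.1%. Values are percent change from baseline, mean ± SD, compared with DMSO by Wilcoxon-Mann Whitney, interpreted against DMSO tolerance intervals.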

- BR (beating rate), % change from baseline (0.1 µM, 2h): 7±3%
- Beating below threshold, number of observations/total well numbers (0.1 µM, 2h): 0/5
- Cessation of beating, number of observations/total well numbers (0.1 µM, 2h): 0/5
- EAD, number of observations/total well numbers (0.1 µM, 2h): 0/5
- FPD (field-potential duration), % change from baseline (0.1 µM, 2h): -0.9±3.5%
- FPDc (field-potential duration corrected by beat-rate), % change from baseline (0.1 µM, 2h): 1.2±2.7%
- Flat T-wave-like, number of observations/total well numbers (0.1 µM, 2h): 0/5
- BR (beating rate), % change from baseline (0.1 µM, 24h): 41±12 %
- Beating below threshold, number of observations/total well numbers (0.1 µM, 24h): 0/5
- Cessation of beating, number of observations/total well numbers (0.1 µM, 24h): 0/5
- EAD, number of observations/total well numbers (0.1 µM, 24h): 0/5
- FPD (field-potential duration), % change from baseline (0.1 µM, 24h): -18.2±8.6 %
- FPDc (field-potential duration corrected by beat-rate), % change from baseline (0.1 µM, 24h): -8.8±6.9 %
- Flat T-wave-like, number of observations/total well numbers (0.1 µM, 24h): 0/5
- BR (beating rate), % change from baseline (0.1 µM, 48h): 26±8 %
- Beating below threshold, number of observations/total well numbers (0.1 µM, 48h): 0/5
- Cessation of beating, number of observations/total well numbers (0.1 µM, 48h): 0/5
- EAD, number of observations/total well numbers (0.1 µM, 48h): 0/5
- FPD (field-potential duration), % change from baseline (0.1 µM, 48h): -24.4±9.8 %
- FPDc (field-potential duration corrected by beat-rate), % change from baseline (0.1 µM, 48h): -18.8±8.7 %
- Flat T-wave-like, number of observations/total well numbers (0.1 µM, 48h): 0/5
- BR (beating rate), % change from baseline (0.1 µM, 72h): 22±6 %
- Beating below threshold, number of observations/total well numbers (0.1 µM, 72h): 0/5
- Cessation of beating, number of observations/total well numbers (0.1 µM, 72h): 0/5
- EAD, number of observations/total well numbers (0.1 µM, 72h): 0/5
- FPD (field-potential duration), % change from baseline (0.1 µM, 72h): -25±8.7 %
- FPDc (field-potential duration corrected by beat-rate), % change from baseline (0.1 µM, 72h): -20.4±8.9 %
- Flat T-wave-like, number of observations/total well numbers (0.1 µM, 72h): 1/5
- BR (beating rate), % change from baseline (0.1 µM, 96h): -7±13%
- Beating below threshold, number of observations/total well numbers (0.1 µM, 96h): 0/5
- Cessation of beating, number of observations/total well numbers (0.1 µM, 96h): 0/5
- EAD, number of observations/total well numbers (0.1 µM, 96h): 0/5
- FPD (field-potential duration), % change from baseline (0.1 µM, 96h): -11.7±0.4 %
- FPDc (field-potential duration corrected by beat-rate), % change from baseline (0.1 µM, 96h): -16.2±0.1 %
- Flat T-wave-like, number of observations/total well numbers (0.1 µM, 96h): 3/5
- time point from which cessation of beating occurred in all wells (0.3 µM): 48 h
- BR (beating rate), % change from baseline (0.3 µM, 2h): 2±2%
- Beating below threshold, number of observations/total well numbers (0.3 µM, 2h): 0/5
- Cessation of beating, number of observations/total well numbers (0.3 µM, 2h): 0/5
- EAD, number of observations/total well numbers (0.3 µM, 2h): 0/5
- FPD (field-potential duration), % change from baseline (0.3 µM, 2h): 2.2±0.8%
- FPDc (field-potential duration corrected by beat-rate), % change from baseline (0.3 µM, 2h): 2.8±1.1%
- Flat T-wave-like, number of observations/total well numbers (0.3 µM, 2h): 0/5
- BR (beating rate), % change from baseline (0.3 µM, 24h): 24±8 %
- Beating below threshold, number of observations/total well numbers (0.3 µM, 24h): 0/5
- Cessation of beating, number of observations/total well numbers (0.3 µM, 24h): 0/5
- EAD, number of observations/total well numbers (0.3 µM, 24h): 0/5
- FPD (field-potential duration), % change from baseline (0.3 µM, 24h): -21±2.9 %
- FPDc (field-potential duration corrected by beat-rate), % change from baseline (0.3 µM, 24h): -14.6±1.7 %
- Flat T-wave-like, number of observations/total well numbers (0.3 µM, 24h): 2/5
- BR (beating rate), % change from baseline (0.3 µM, 48h): 40±8 %
- Beating below threshold, number of observations/total well numbers (0.3 µM, 48h): 0/5
- Cessation of beating, number of observations/total well numbers (0.3 µM, 48h): 2/5
- EAD, number of observations/total well numbers (0.3 µM, 48h): 0/5
- Flat T-wave-like, number of observations/total well numbers (0.3 µM, 48h): 3/5
- BR (beating rate), % change from baseline (0.3 µM, 72h): 39±0 %
- Beating below threshold, number of observations/total well numbers (0.3 µM, 72h): 0/5
- Cessation of beating, number of observations/total well numbers (0.3 µM, 72h): 4/5
- EAD, number of observations/total well numbers (0.3 µM, 72h): 0/5
- Flat T-wave-like, number of observations/total well numbers (0.3 µM, 72h): 1/5
- Beating below threshold, number of observations/total well numbers (0.3 µM, 96h): 0/5
- Cessation of beating, number of observations/total well numbers (0.3 µM, 96h): 5/5
- EAD, number of observations/total well numbers (0.3 µM, 96h): 0/5
- Flat T-wave-like, number of observations/total well numbers (0.3 µM, 96h): 0/5
- time point from which cessation of beating occurred in all wells (1 µM): 48 h
- BR (beating rate), % change from baseline (1 µM, 2h): 3±2%
- Beating below threshold, number of observations/total well numbers (1 µM, 2h): 0/5
- Cessation of beating, number of observations/total well numbers (1 µM, 2h): 0/5
- EAD, number of observations/total well numbers (1 µM, 2h): 0/5
- FPD (field-potential duration), % change from baseline (1 µM, 2h): 2.8±3.4%
- FPDc (field-potential duration corrected by beat-rate), % change from baseline (1 µM, 2h): 4.2±3%
- Flat T-wave-like, number of observations/total well numbers (1 µM, 2h): 0/5
- BR (beating rate), % change from baseline (1 µM, 24h): 68±21 %
- Beating below threshold, number of observations/total well numbers (1 µM, 24h): 0/5
- Cessation of beating, number of observations/total well numbers (1 µM, 24h): 0/5
- EAD, number of observations/total well numbers (1 µM, 24h): 0/5
- Flat T-wave-like, number of observations/total well numbers (1 µM, 24h): 4/5
- Beating below threshold, number of observations/total well numbers (1 µM, 48h): 0/5
- Cessation of beating, number of observations/total well numbers (1 µM, 48h): 5/5
- EAD, number of observations/total well numbers (1 µM, 48h): 0/5
- Flat T-wave-like, number of observations/total well numbers (1 µM, 48h): 0/5
- Beating below threshold, number of observations/total well numbers (1 µM, 72h): 0/5
- Cessation of beating, number of observations/total well numbers (1 µM, 72h): 5/5
- EAD, number of observations/total well numbers (1 µM, 72h): 0/5
- Flat T-wave-like, number of observations/total well numbers (1 µM, 72h): 0/5
- Beating below threshold, number of observations/total well numbers (1 µM, 96h): 0/5
- Cessation of beating, number of observations/total well numbers (1 µM, 96h): 5/5
- EAD, number of observations/total well numbers (1 µM, 96h): 0/5
- Flat T-wave-like, number of observations/total well numbers (1 µM, 96h): 0/5
- time point from which cessation of beating occurred in all wells (3 µM): 24 h
- Beating below threshold, number of observations/total well numbers (3 µM, 72h): 0/5
- Cessation of beating, number of observations/total well numbers (3 µM, 72h): 5/5
- EAD, number of observations/total well numbers (3 µM, 72h): 0/5
- Flat T-wave-like, number of observations/total well numbers (3 µM, 72h): 0/5
- Beating below threshold, number of observations/total well numbers (3 µM, 96h): 0/5
- Cessation of beating, number of observations/total well numbers (3 µM, 96h): 5/5
- EAD, number of observations/total well numbers (3 µM, 96h): 0/5
- Flat T-wave-like, number of observations/total well numbers (3 µM, 96h): 0/5
- BR (beating rate), % change from baseline (3 µM, 2h): 1±2%
- Beating below threshold, number of observations/total well numbers (3 µM, 2h): 0/5
- Cessation of beating, number of observations/total well numbers (3 µM, 2h): 0/5
- EAD, number of observations/total well numbers (3 µM, 2h): 0/5
- FPD (field-potential duration), % change from baseline (3 µM, 2h): 3.9±2.4%
- FPDc (field-potential duration corrected by beat-rate), % change from baseline (3 µM, 2h): 4.3±2.4%
- Flat T-wave-like, number of observations/total well numbers (3 µM, 2h): 0/5
- BR (beating rate), % change from baseline (3 µM, 24h): 41±36 %
- Beating below threshold, number of observations/total well numbers (3 µM, 24h): 0/5
- Cessation of beating, number of observations/total well numbers (3 µM, 24h): 1/5
- EAD, number of observations/total well numbers (3 µM, 24h): 0/5
- FPD (field-potential duration), % change from baseline (3 µM, 24h): -15.8±3.8 %
- FPDc (field-potential duration corrected by beat-rate), % change from baseline (3 µM, 24h): -2.9±4.7 %
- Flat T-wave-like, number of observations/total well numbers (3 µM, 24h): 2/5
- Beating below threshold, number of observations/total well numbers (3 µM, 48h): 0/5
- Cessation of beating, number of observations/total well numbers (3 µM, 48h): 5/5
- EAD, number of observations/total well numbers (3 µM, 48h): 0/5
- Flat T-wave-like, number of observations/total well numbers (3 µM, 48h): 0/5
SMILES: COc1cccc2c1C(=O)c1c(O)c3c(c(O)c1C2=O)C[C@@](O)(C(=O)CO)C[C@@H]3O[C@H]1C[C@H](N)[C@H](O)[C@H](C)O1 [Doxorubicin]
